Data: patent US20180194805A1, “USE OF PENTAPEPTIDE-3 KTTKS OR HEXAPEPTIDE-3 KTTKSF FOR TREATING DEGENERATIVE JOINT DISEASE” (Advanced Healthtech Biopeptide Laboratories Co., LTD., priority 2017, published 2018)
“Also recorded” adds a separate entry of the source.

Tests used:
[1] = tested on: arthrodial cartilage of the knee joint; assay: Rabbit knee cartilage injury model: observation by bare eyes and histomorphometry; assay type: in vivo, New Zealand white rabbits; conditions: intra-articular 250 ppm/kg once every 7 days
Method: (§1) Fifteen (15) healthy adult New Zealand white rabbits were randomly divided into three (3) groups: a normal control group (Group A), a model control group (Group B) and a test group subject to intra-articular injection of a test peptide (Group C), with five (5) rabbits included in each of the groups. Fasting was conducted within four hours before surgical operations. Ketamine (10 mg/kg) and atropine (0.2 mg/kg) were injected in the muscle of each rabbit. After anesthesia took effect, each rabbit was confined to an operating table. An 8 cm-long longitudinal scission was made in the back of each knee before the skin was lifted. From the back of the knee, the articular capsule and synovial were opened. Then, the knee was bent for 90° to expose the cartilage at a lower end of the femur. Two cylindrical cutouts of 3 mm in diameter and 3 mm in depth were made. Coagulation was removed from each of the cutouts. The joint cavity was washed with a sterile saline solution. Stitches were made for each section. After the surgical operation, injection of penicillin was conducted against infection for a week. After five (5) days, each rabbit was able to eat and stand normally.
(§2) Two (2) weeks after the surgical operation, the rabbits of Group A and Group B were not treated, whereas the rabbits of Group C were subject to intra-articular injection of 250 ppm/kg of pentapeptide-3 KTTKS once for every seven (7) days, and the injection lasted for twelve (12) weeks. Articular injection of 0.5 ml of saline was executed, and then 0.2 ml of synovial liquid was collected. The articular capsule was cut and opened, synovial was removed, and an entire tibial joint was taken. Arthropathy in arthrodial cartilage was observed by bare eyes and also via surgical lens. Slices were taken, dyed by hematoxylin and eosin stain (HE Stain) and toluidine blue, and then observed in an optical microscope.

[2] = tested on: NO, SOD and MDA in synovial liquid; assay: Biochemical indicators (NO, SOD, MDA) in synovial liquid of the rabbit model; assay type: in vivo, New Zealand white rabbits
Source text: As used in the present invention, all of the methods for measuring SOD, NO and MDA in synovial liquid and collagen and proteoglycan in extracellular matrix of cartilage have been known and conventionally used in the art.
as §1, §2

[3] = tested on: cartilage cells of the growth plate; assay: Cultivated cartilage cells: DNA content, collagen and proteoglycan production; assay type: cell-based, rabbits; conditions: 250 ppm; samples after 3, 7 and 14 days
Method: Firstly, cartilage cells of the growth plate of the same rabbits were taken and continuously cultivated. The cultivated cells were divided into three groups. In Group I, only 250 ppm of pentapeptide-3 KTTKS was added. In Group II, only 100 ng/ml of collagen was added. In Group III, 250 ppm of pentapeptide-3 KTTKS and 100 ng/ml of collagen were added. A negative control group was also used. After new tissues of cartilage grew at a lower portion of a centrifuge tube, the new tissues were transferred to a 24-well platefor continuing cultivation, wherein the culture medium was replaced for every 2 days. During the cultivation, samples were collected after three (3), seven (7) and fourteen (14) days, and then were analyzed.
For the histological and histochemical measurements, samples were collected, and HE dying and immunochemical measurement (S-P method) were executed.
The content of DNA in the cells of cartilage was determined by the method of Hoechst 33258.
Extracellular matrix of cartilage primarily comprises collagen and proteoglycan composed of glycosaminoglycan and core protein, in addition to water. The content of the matrix and its status of the metabolism were quantitatively analyzed by determining a level of the collagen and proteoglycan in the new tissues of cartilage.
The synthesis of the collagen of the cartilage is measured by the hydroxyproline method. Because the content of hydroxyproline in the collagen was substantially constant (about 10% by weight), an amount of hydroxyproline could be used to analyze the amount of the collagen of the cartilage by using a commercial kit including the hydroxyproline reagent. The content of the collagen in the samples was calculated.

[4] = Group C: intra-articular injection of 250 ppm/kg once every 7 days for 12 weeks
[5] = intra-articular 250 ppm/kg once every 7 days, 12 weeks

For “pentapeptide-3 KTTKS (printed: Lys-Thr-Thr-Lys-Ser) [pentapeptide Lys-Thr-Thr-Lys-Ser; test peptide injected intra-articularly in Group C]”, the “Histomorphometric observation of repaired tissues (HE stain, toluidine blue)” value ([1]; after 12 weeks) was “the repaired tissues were not substantially different from the normal tissues of the knee joint; also recorded: considerably repaired the damaged tissues of cartilage”, the “Repair of knee joint injuries observed by bare eyes” value ([1]; after 12 weeks) was “the injuries were completely repaired” and the “Morphosis of the arthrodial cartilage compared with model control Group B” value ([1]; 12 weeks) was “significant improvement”. For the same substance, the “MDA level in synovial liquid” value [2, 4] was 15.23 ± 5.62 c/mol · L^−1, the “NO level in synovial liquid” value [2, 4] was 25.11 ± 3.65 c/mol · L^−1 and the “SOD level in synovial liquid” value [2, 4] was 6.18 ± 2.17 c/mol · L^−1. For the same substance, the “Change of MDA level in synovial liquid compared with model control Group B” value [2, 5] was “considerably reduced”, the “Change of SOD level in synovial liquid compared with model control Group B” value [2, 5] was “considerably increased” and the “Content of DNA of the cells of the cartilage versus control group (Hoechst 33258, FIG. 1)” value [3] was “statistically different from that of the control group”. For the same substance, the “Hyperosteogeny of the cells of the cartilage” value [3] was “considerable hyperosteogeny”, the “Production of collagen in cartilage tissue (hydroxyproline method, FIG. 2)” value [3] was “considerably increased” and the “Production of proteoglycan of cartilage tissue (FIG. 3)” value [3] was “considerably increased”.
